# From patent US10111841B2, “Stabilization of alcohol intoxication-induced cardiovascular instability” (UNIVERSITY OF SOUTH FLORIDA, priority 2015, dated 2018)
# Key:
# [1] = swine, uncontrolled hemorrhage; cited from earlier work
# [2] = molecular target: S1P1R (Homo sapiens, UniProt P21453); conditions: cited from earlier work
# [3] = 0.5 mg/kg; anesthetized rats; several hours after administration; cited from earlier work
# [4] = tested on: microvascular hyperpermeability; conditions: in vivo; cited from earlier work
# [5] = tested on: endothelial barrier; conditions: in vitro; cited from earlier work
# [6] = tested on: HUVEC; test: TER of HUVEC monolayers on gold-plated electrodes (endothelial barrier function); assay type: cell-based; conditions: for course of barrier function (TER) over time / restoration of barrier function (TER) after alcohol: 50 mM alcohol, 10 min later 1 μM compound
# Protocol: (§1) FIGS. 3A-3D. Alcohol-induced endothelial barrier dysfunction in cultured endothelial cell monolayers. FIG. 3A: Time-course of changes in transepithelial electrical resistance (TER) of HUVEC monolayers following application of vehicle (water) or 20, 50, or 100 mM alcohol. FIG. 3B: Time course of alcohol-induced changes in TER in HMVEC-C monolayers. FIG. 3C: The mean maximum alcohol-induced changes in TER in HUVEC. FIG. 3D: Mean maximum alcohol-induced changes in TER in HMVEC-c. *P<0.05 and **P<0.01 vs. vehicle. One-way ANOVA followed by Dunnett's test, all groups, N=4.
# FIGS. 6A and 6B. Alcohol-induced barrier dysfunction in HUVEC was resolved faster by S1P treatment. HUVEC were cultured to confluence on gold-plated electrodes and then serum starved for 1-2 hours. Following 30 minutes of baseline TER measurements, alcohol was added to the wells to a final concentration of 50 mM for 5 minutes before treatment with 1 μM of […] or vehicle. FIG. 6A: Time course of changes in HUVEC monolayer TER in response to 50 mM alcohol, followed by addition of 1 μM S1P 5 min later, or vehicle (PBS) 5 min later. FIG. 6B: Mean recovery time for HUVEC, i.e., time to return to baseline TER, starting from the time point immediately preceding alcohol was added. **P<0.01 versus alcohol/vehicle group. Statistical analysis by t-test; all HUVEC groups, N=8.
# (§2) FIGS. 10A-10C. Selective S1P1R agonist FTY720-phosphonate ameliorates alcohol-induced microvascular hyperpermeability. FTY720 and its analogs reverse alcohol-induced disruption of EC monolayer barrier function. In all panels, 50 mM alcohol or vehicle was applied first, and 10 min later, 1 μM of FTY720 (FIG. 10A) FTY720-P (FIG. 10B) or FTY720 (S)-phosphonate (FIG. 10C) or vehicle was added. […] A minimum of N=4 monolayers in each group.
# (§3) The direct impact of alcohol on endothelial barrier function was tested using cultured HUVEC or HMVEC-c confluent monolayers grown on gold-plated electrodes. Thirty minutes of baseline transepithelial electrical resistance (TER) measurements were recorded before the cells were treated with alcohol at final bath concentrations of 20, 50 or 100 mM. Alcohol was added directly into the MEDIA within the wells. […] The decrease in TER was alcohol concentration-dependent with high alcohol concentrations eliciting a larger drop in TER. The maximal decline in TER from baseline was significant for the 50 and 100 mM concentrations in both HUVEC (FIG. 3C) and HMVEC-c (FIG. 3D).
# The inventors next set out to determine if S1P could similarly reduce the recovery time for TER to be reestablished to baseline in HUVEC pretreated with alcohol. Following 30 minutes of baseline TER measurements, alcohol was added to the wells to a final concentration of 50 mM for 5 minutes before treatment with 1 μM S1P or vehicle.
# (§4) FIGS. 10A-C show TER data. TER is an index of the barrier function of endothelial cells. […] Unlike S1P, which restored the barrier in about 5 min (see FIG. 6A), FTY720 restored barrier function occurred gradually (FIG. 10A).
# [7] = multiple sclerosis patients; cited from earlier work
# [8] = combined hemorrhage and trauma (laparotomy), anesthetized rats; cited from earlier work
# [9] = MAP during fixed-pressure hemorrhage and resuscitation (HSR) protocol; assay type: in vivo, Sprague-Dawley rats
# [10] = tested on: mesenteric microcirculation
# Description: FIG. 5A: Representative fluorescent image of the mesenteric microcirculation of a rat that received water and undergoing sham-HSR illustrating that FITC-albumin was present mainly inside the lumen of microvessels. […] FIG. 5C: Representative image of the mesenteric microcirculation of a water-treated rat that underwent HSR. FIG. 5D: Representative image of the mesenteric microcirculation of an alcohol-treated rat that underwent HSR.
# Immediately following completion of the HSR protocol the animal was anesthetized and prepped for IVM. […] This extravasation was quantified by calculating the mean 60-minute RM.
# [11] = tested on: mesenteric microcirculation; test: IVM of FITC-albumin extravasation in the rat mesenteric microcirculation; assay type: in vivo, Sprague-Dawley rats
# Protocol: FIGS. 2A-2D. […] FIG. 2C: Mean maximum change in IOI in the extravascular space from the initial baseline just after FITC-albumin was injected i.v. to the end of the IVM experiment. FIG. 2D: Mean mesenteric arteriolar diameter in the observed microvascular beds. *P<0.05, alcohol vs. water. Mann-Whitney U-test, N=5 rats studied for the water group, and N=8 rats studied for the alcohol group.
# FIGS. 7A-7C. […] White circles highlight areas of FITC-Albumin fluorescence in the surrounding interstitium. White arrows indicate areas of FITC-Albumin accumulation resulting in hotspots of fluorescence within and just outside the vessel walls. […] FIG. 7C: Mean maximum change in IOI in the extravascular space, from the initial baseline just after FITC-albumin was injected i.v. **P<0.01, Alcohol-Sham. Statistical analysis by t-test; both treatment groups, N=8.
# S1P has been used to reduce the permeability of rat microvessels to BSA, however, only one study has been performed in intact animals. Using the inventors' established method of observing hyperpermeability in the rat mesentery, the ability of S1P to abolish or attenuate the enhanced extravasation of FITC-albumin caused by acute alcohol intoxication was examined. After receiving a 2.5 g/kg bolus of alcohol and allowed free roaming for 30 minutes, rats were prepared for IVM and administered S1P to a final concentration of 2 μM within the FITC-albumin infusion. This provided an estimated final plasma concentration of S1P in the rats of 0.2 μM.
# [12] = tested on: HMVEC-c; test: TER of HMVEC-c / cardiac microvascular EC monolayers; assay type: cell-based
# Protocol: as §1, §2, §3, §4
# [13] = Blood alcohol concentration after intragastric alcohol; conditions: 30 minutes after 2.5 g/kg alcohol vs time-matched water-treated groups
# Protocol: Blood alcohol concentrations (BAC) 30 minutes after administration of 2.5-g/kg alcohol or isovolumic water. Intragastric catheters were implanted 2-3 days before the day of experiments. Male Sprague-Dawley rats were administered 2.5 g/kg alcohol or isovolumic water and allowed to freely roam in their cages for 30 minutes. Following 30 minutes incubation, experimental protocols were begun and blood samples obtained.
# Administration of a 2.5-g/kg dose of alcohol was performed via an intragastric catheter that was implanted 2-3 days before the day of experiment. The animals were allowed to roam freely for 30 minutes after administration.
# [14] = MAP during IVM following HSR; assay type: in vivo, Sprague-Dawley rats; conditions: alcohol-intoxicated rats; 0.1 mg/kg S1P during resuscitation; 30 minutes IVM; only 3 experiments
# Protocol: The time-course of changes in MAP of Sprague-Dawley rats treated with alcohol, water, or alcohol and 0.1 mg/kg S1P within the resuscitation fluid during the IVM stage.
# As before, immediately following completion of the HSR protocol the animal was anesthetized and prepped for IVM. During IVM, MAP is continually monitored. […] At the time of writing this, only 3 IVM experiments were performed with alcohol-intoxicated animals that received S1P during resuscitation.
# [15] = 2.5 g/kg alcohol vs water-treated animals
# [16] = cardiac microvascular EC, 50 mM alcohol, 10 min later 1 μM compound
# [17] = alcohol-intoxicated rats (2.5 g/kg), S1P in the FITC-albumin infusion, estimated plasma 0.2 μM
# Sequence of S1P1R (P21453 whole entry): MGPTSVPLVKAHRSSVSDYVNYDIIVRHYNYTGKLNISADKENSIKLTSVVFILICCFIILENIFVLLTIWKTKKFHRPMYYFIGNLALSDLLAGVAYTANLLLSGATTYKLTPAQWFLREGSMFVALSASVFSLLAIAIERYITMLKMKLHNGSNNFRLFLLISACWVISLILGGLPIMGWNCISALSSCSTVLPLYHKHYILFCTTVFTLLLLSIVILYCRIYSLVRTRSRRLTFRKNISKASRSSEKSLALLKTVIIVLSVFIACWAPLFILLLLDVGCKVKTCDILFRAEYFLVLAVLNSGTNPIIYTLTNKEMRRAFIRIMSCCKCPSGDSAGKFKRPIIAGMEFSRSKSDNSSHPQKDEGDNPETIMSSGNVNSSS
structure (smiles),measurement,setting,value
"CCCCCCCCc1ccc(CCC(N)(CO)CO)cc1 [FTY720, 2-amino-2-(4-octylphenethyl)propane-1,3-diol]",survival,[1],improved survival
same,S1P1R turnover,[2],can cause proteasome-mediated turnover of S1P1R
same,baseline blood pressure,[3],reduced baseline blood pressure
same,VEGF- and histamine-induced microvascular hyperpermeability,[4],reduces
same,endothelial barrier function,[5],enhances endothelial barrier function
same,course of barrier function (TER) over time,[6],gradually
same,restoration of barrier function (TER) after alcohol,[6],accelerated its restoration to the baseline level
same,rate of clinical relapses,[7],reduce the rate of clinical relapses
same,hypotension and lung injury,[8],reduced
CCO [alcohol],recovery of MAP during the resuscitation phase,[9]; 2.5 g/kg alcohol vs water,significantly blunted
same,baseline MAP,[9]; [15],significantly lower
same,total blood volume shed to achieve the 40-60 mm Hg target MAP (TBR),[9]; [15],significantly less
same,mean 60-minute IOI (printed RN) in the extravascular space,[10]; alcohol-HSR rats vs water-HSR rats,significantly higher
same,mean 60-minute IOI in the extravascular space,[10]; alcohol-sham rats vs water-sham rats,significantly higher
same,mean maximal change in IOI in the extravascular space adjacent to postcapillary venules,[11]; 2.5 g/kg alcohol intragastric vs water control rats,significantly higher
same,mean arteriolar diameter of third-order arterioles,[11]; 2.5 g/kg alcohol vs control groups,no significant difference
same,maximal decline in TER from baseline,"[12]; HMVEC-c, 50 and 100 mM alcohol vs vehicle",significant
same,TER of the monolayer,"[12]; HMVEC-c, alcohol 20, 50 or 100 mM",immediate decline in the TER
same,BAC,[13],significantly higher
same,maximal decline in TER from baseline,[6]; 50 and 100 mM alcohol vs vehicle,significant
same,TER of the monolayer,"[6]; alcohol 20, 50 or 100 mM",immediate decline in the TER
CCCCCCCCc1ccc(CC[C@](N)(CO)COP(=O)(O)O)cc1 [FTY720-P],course of barrier function (TER) over time,[12]; [16],"overshoot over the original baseline, followed by a gradual drop over time"
same,restoration of barrier function (TER) after alcohol,[12]; [16],much more rapid elevation in barrier function
"CCCCCCCCc1ccc(CC[C@@](N)(CO)CCP(=O)(O)O)cc1 [FTY720 (S)-phosphonate, (S)-3-amino-3-(hydroxymethyl)-5-(4-octylphenyl)pentylphosphonic acid]",S1P1R turnover,[2],limits this S1P1R turnover
same,endothelial barrier function,[5],longer-lasting endothelial barrier enhancement
same,course of barrier function (TER) over time,[6],sustained enhancement of barrier integrity over time
same,restoration of barrier function (TER) after alcohol,[6],"rapid rescue of barrier function, rising above baseline levels"
"CCCCCCCCCCCCC/C=C/[C@@H](O)[C@@H](N)COP(=O)(O)O [S1P, sphingosine-1-phosphate]",recovery of MAP during resuscitation,"[9]; alcohol-intoxicated rats, 0.1 mg/kg S1P within lactated Ringer's resuscitation fluid",same impaired recovery of MAP
same,extravasation of FITC-albumin,[11]; [17],marked reduction
same,mean IOI in the extravascular space vs FITC-albumin infusion alone,[11]; [17],significantly lower
same,MAP higher than alcohol-intoxicated animals that received standard fluids,[14],20-25 mm Hg
same,TER time course after alcohol,"[6]; 50 mM alcohol for 5 minutes, then 1 μM S1P",rapidly rise to the previously established baseline levels
same,reestablishing baseline TER faster than cells treated with vehicle (recovery time),"[6]; 50 mM alcohol for 5 minutes, then 1 μM S1P or vehicle",about 30 minutes
same,time to restore the barrier,"[6]; after alcohol, FIG. 6A",about 5 min
